Test results taken from patent US20230107598A1, “SORGHUM DOUBLED HAPLOID […]” (PIONEER HI-BRED INTERNATIONAL, INC., priority 2020, published 2023).

Test system: haploid sorghum plants
Test: Chromosome doubling of haploid sorghum plants by root treatment with colchicine
Format: in vivo
Details: colchicine 0.05%, 5 hours, roots
From the text: Plants from diploid sorghum genotypes, “PHI01”, “PHI02”, “PHI03”, “PHI04”, “PHI05”, “PHI06”, “PHI07”, “PHI08”, “PHI09”, “PHI10”, “PHI11”, “PHI12”, “PHI13”, “PHI14”, “PHI15”, “PHI16”, “PHI17”, “PHI18”, “PHI19”, and “PHI20” were pollinated with pollen obtained from pearl millet line PHI01A, as described in Example 2. Immature haploid embryos were isolated, as described in Example 2, 10-20 days after pollination and embryo sizes ranged from 0.1-3 mm long. These haploid embryos were germinated on a medium (see Table 4) in the dark. The germinated haploid embryos were then transferred to fresh media for an additional 7-10 days at 21°−26° C. in the dark until germinated plantlets formed. The germinated plantlets were then transferred to a light culture room and grown at 21°−26° C. for another 2-3 weeks until healthy plantlets having good roots developed. These plantlets were then potted into soil and grown in a regular greenhouse for 5-6 weeks. Upon healthy plant establishment, the roots were treated with a chromosome doubling agent, colchicine, for 5 hours in the dark. Additional chromosome doubling agents for example, pronamide, dithipyr, oryzalin, AMP, and trifluralin, or any of the other chromosome doubling agents referenced in Table 1 can also be used. After treatment with the doubling agent, the roots were then thoroughly rinsed with running water for 30 min, to remove the residual doubling agent and then potted in soil and grown to maturity.

[1] = PHI01/2018, 15 haploid plants treated
[2] = PHI02/2018, 63 haploid plants treated
[3] = PHI02/2019, 17 haploid plants treated
[4] = PHI02/2020, 13 haploid plants treated
[5] = PHI03/2018, 20 haploid plants treated
[6] = PHI04/2018, 9 haploid plants treated
[7] = PHI05/2018, 3 haploid plants treated
[8] = PHI05/2019, 4 haploid plants treated
[9] = PHI05/2020, 1 haploid plant treated
[10] = PHI06/2018, 24 haploid plants treated
[11] = PHI07/2018, 24 haploid plants treated
[12] = PHI08/2018, 2 haploid plants treated
[13] = PHI09/2018, 8 haploid plants treated
[14] = PHI09/2019, 14 haploid plants treated
[15] = PHI09/2020, 10 haploid plants treated
[16] = PHI10/2018, 38 haploid plants treated
[17] = PHI10/2019, 36 haploid plants treated
[18] = PHI10/2020, 25 haploid plants treated
[19] = PHI11/2019, 2 haploid plants treated
[20] = PHI11/2020, 2 haploid plants treated
[21] = PHI12/2019, 8 haploid plants treated
[22] = PHI12/2020, 1 haploid plant treated
[23] = PHI13/2019, 30 haploid plants treated
[24] = PHI13/2020, 18 haploid plants treated
[25] = PHI14/2019, 53 haploid plants treated
[26] = PHI14/2020, 14 haploid plants treated
[27] = PHI15/2019, 15 haploid plants treated
[28] = PHI15/2020, 5 haploid plants treated
[29] = PHI16/2019, 27 haploid plants treated
[30] = PHI17/2020, 4 haploid plants treated
[31] = PHI18/2020, 6 haploid plants treated
[32] = PHI19/2020, 23 haploid plants treated
[33] = PHI20/2020, 9 haploid plants treated
[34] = Sum of all genotypes/years, 543 haploid plants treated

COc1cc2c(c(OC)c1OC)-c1ccc(OC)c(=O)cc1[C@@H](NC(C)=O)CC2 [Colchicine, (S)-N-(5,6,7,9-tetrahydro-1,2,3,10-tetramethoxy-9-oxobenzo (a)heptalen-7-yl) acetamide]
18: Number of Fully Fertile DH plants [24] | Number of plants survived after treatment [24]
24: Number of Fully Fertile DH plants [10] | Number of plants survived after treatment [10]
9: Number of Fully Fertile DH plants [6] | Number of plants survived after treatment [6] | Number of Fully Fertile DH plants [33] | Number of plants survived after treatment [33]
10: Number of Fully Fertile DH plants [15] | Number of plants survived after treatment [15]
4: Number of Fully Fertile DH plants [8] | Number of plants survived after treatment [8] | Number of Fully Fertile DH plants [30] | Number of plants survived after treatment [30]
30: Number of Fully Fertile DH plants [23] | Number of plants survived after treatment [23]
17: Number of Fully Fertile DH plants [3] | Number of plants survived after treatment [3]
14: Number of plants survived after treatment [14]
27: Number of Fully Fertile DH plants [29] | Number of plants survived after treatment [29]
537: Number of Fully Fertile DH plants [34]
6: Number of Fully Fertile DH plants [31] | Number of plants survived after treatment [31]
62: Number of Fully Fertile DH plants [2] | Number of plants survived after treatment [2]
15: Number of Fully Fertile DH plants [1] | Number of plants survived after treatment [1] | Number of Fully Fertile DH plants [27] | Number of plants survived after treatment [27]
20: Number of Fully Fertile DH plants [5] | Number of plants survived after treatment [5]
5: Number of Fully Fertile DH plants [28] | Number of plants survived after treatment [28]
25: Number of Fully Fertile DH plants [18] | Number of plants survived after treatment [18]
97%: DH Success rate (%) [17]
52: Number of Fully Fertile DH plants [25] | Number of plants survived after treatment [25]
93%: DH Success rate (%) [14] | DH Success rate (%) [26]
99%: DH Success rate (%) [34]
2: Number of Fully Fertile DH plants [12] | Number of plants survived after treatment [12] | Number of Fully Fertile DH plants [19] | Number of plants survived after treatment [19] | Number of Fully Fertile DH plants [20] | Number of plants survived after treatment [20]
38: Number of Fully Fertile DH plants [16] | Number of plants survived after treatment [16]
538: Number of plants survived after treatment [34]
98%: DH Success rate (%) [2] | DH Success rate (%) [25]
100%: DH Success rate (%) [1] | DH Success rate (%) [3] | DH Success rate (%) [4] | DH Success rate (%) [5] | DH Success rate (%) [6] | DH Success rate (%) [7] | DH Success rate (%) [8] | DH Success rate (%) [9] | DH Success rate (%) [10] | DH Success rate (%) [12] | DH Success rate (%) [13] | DH Success rate (%) [15] | DH Success rate (%) [16] | DH Success rate (%) [18] | DH Success rate (%) [19] | DH Success rate (%) [20] | DH Success rate (%) [21] | DH Success rate (%) [22] | DH Success rate (%) [23] | DH Success rate (%) [24] | DH Success rate (%) [27] | DH Success rate (%) [28] | DH Success rate (%) [29] | DH Success rate (%) [30] | DH Success rate (%) [31] | DH Success rate (%) [32] | DH Success rate (%) [33]
96%: DH Success rate (%) [11]
8: Number of Fully Fertile DH plants [13] | Number of plants survived after treatment [13] | Number of Fully Fertile DH plants [21] | Number of plants survived after treatment [21]
1: Number of Fully Fertile DH plants [9] | Number of plants survived after treatment [9] | Number of Fully Fertile DH plants [22] | Number of plants survived after treatment [22]
35: Number of Fully Fertile DH plants [17] | Number of plants survived after treatment [17]
13: Number of Fully Fertile DH plants [4] | Number of plants survived after treatment [4] | Number of Fully Fertile DH plants [14] | Number of Fully Fertile DH plants [26] | Number of plants survived after treatment [26]
23: Number of Fully Fertile DH plants [11] | Number of plants survived after treatment [11] | Number of Fully Fertile DH plants [32] | Number of plants survived after treatment [32]
3: Number of Fully Fertile DH plants [7] | Number of plants survived after treatment [7]
